Key:
Assay in all cases: cells
NCM460 cells = type: cell-based; conditions: Homo sapiens, NCM460, read-out: IC50 (μM) ± SD (μM), NCM460
HCT-116 cells = type: cell-based, human
DLD1 cells = type: cell-based; conditions: Homo sapiens, DLD-1, read-out: IC50 (μM) ± SD (μM), DLD1
RKO cells = type: cell-based; conditions: Homo sapiens, read-out: IC50 (μM) ± SD (μM), RKO

CC(=O)OC[C@H]1OC(OC(C)=O)[C@H](n2cc(C(=O)NC3([As](O)O)C=CC=CC3)nn2)[C@@H](OC(C)=O)[C@@H]1OC(C)=O (stereo partly drawn) [Compound 8, 1-(1-(1,3,4,6-tetra-O-acetyl-2-deoxy-D-glucopyranos-2-yl) -1H-1,2,3-triazole-4-carboxamido)phenyl arsonous acid] gave an IC50 (NCM460 cells) of 16.1 ± 2.21 µM, a Selectivity index (HCT-116 cells) of 0.91 and an IC50 (HCT-116 cells; Homo sapiens, HCT-116, read-out: IC50 (μM) ± SD (μM), HCT-116) of 17.7 ± 1.44 µM. For the same molecule, the IC50 (DLD1 cells) was 15 ± 2.72 µM and the IC50 (RKO cells) was 4.57 ± 0.17 µM.

— PMC9091416 (RSC Advances, 2018)
